Consider 25 compounds from ChEMBL document CHEMBL4616591, “Propargylamine-derived multi-target directed ligands for Alzheimer's disease therapy” (Bioorg Med Chem Lett, 2020).

In experiment [1] the target is Acetylcholinesterase (Torpedo californica, UniProt P04058). Description: Inhibition of Torpedo californica AChE using acetylthiocholine chloride as substrate peincubated for 15 mins followed by substrate addition measured after 5 mins by Ellman's method. Further details: species or system Tetronarce californica.
Experiment [2] has as its target T1, Amine oxidase [flavin-containing] A (Rattus norvegicus, UniProt P21396).
T1 sequence (P21396 whole entry): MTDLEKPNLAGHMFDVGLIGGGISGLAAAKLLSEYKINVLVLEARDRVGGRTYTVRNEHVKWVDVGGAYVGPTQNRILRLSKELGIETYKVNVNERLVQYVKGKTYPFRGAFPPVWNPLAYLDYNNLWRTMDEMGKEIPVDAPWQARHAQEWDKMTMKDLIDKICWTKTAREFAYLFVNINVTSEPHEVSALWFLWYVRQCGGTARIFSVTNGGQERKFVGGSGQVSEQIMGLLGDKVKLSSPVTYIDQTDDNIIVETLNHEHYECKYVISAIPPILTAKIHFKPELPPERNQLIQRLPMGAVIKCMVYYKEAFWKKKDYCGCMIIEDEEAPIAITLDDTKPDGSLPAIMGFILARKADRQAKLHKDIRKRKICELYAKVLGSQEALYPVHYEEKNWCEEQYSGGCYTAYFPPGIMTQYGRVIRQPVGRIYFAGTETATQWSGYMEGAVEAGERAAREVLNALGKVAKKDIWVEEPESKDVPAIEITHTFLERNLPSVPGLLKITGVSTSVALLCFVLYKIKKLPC
Description: In-vivo inhibition of MAO A in rat brain at 26 mg/kg, po relative to control. Format: functional, organism-based.

Experiment [3] addresses T2, Amine oxidase [flavin-containing] B (Rattus norvegicus, UniProt P19643).
T2 sequence (P19643 whole entry): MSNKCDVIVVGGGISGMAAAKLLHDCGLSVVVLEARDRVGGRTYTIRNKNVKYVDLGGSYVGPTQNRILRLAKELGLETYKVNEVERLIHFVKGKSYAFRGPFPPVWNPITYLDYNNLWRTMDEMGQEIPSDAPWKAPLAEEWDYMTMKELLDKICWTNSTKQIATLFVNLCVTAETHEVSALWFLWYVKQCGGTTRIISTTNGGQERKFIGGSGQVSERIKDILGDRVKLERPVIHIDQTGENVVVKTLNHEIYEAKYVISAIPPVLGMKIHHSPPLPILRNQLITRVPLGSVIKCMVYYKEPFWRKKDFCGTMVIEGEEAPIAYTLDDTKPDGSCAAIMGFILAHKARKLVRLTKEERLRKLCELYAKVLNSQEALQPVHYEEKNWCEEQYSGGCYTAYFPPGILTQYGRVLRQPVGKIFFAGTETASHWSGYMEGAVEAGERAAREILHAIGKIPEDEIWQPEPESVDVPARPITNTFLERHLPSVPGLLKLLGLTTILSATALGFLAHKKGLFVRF
Description: In-vivo inhibition of MAO B in rat brain at 26 mg/kg, po relative to control. It counts as functional, organism-based.

Experiment [4] addresses T3, Acetylcholinesterase (Electrophorus electricus, UniProt O42275).
Description: (§1) Inhibition of electric eel AChE by Ellman's method
For experiment [5], the target named is T4, Acetylcholinesterase (Homo sapiens, UniProt P22303). The following applies: 0.6 mg/kg.
Experiment [6] has as its target Cholinesterase (Homo sapiens) (UniProt P06276). As to conditions: 0.6 mg/kg.
For experiment [7], the target named is T5, Amine oxidase [flavin-containing] B (Homo sapiens, UniProt P27338).
T5 sequence (P27338 whole entry): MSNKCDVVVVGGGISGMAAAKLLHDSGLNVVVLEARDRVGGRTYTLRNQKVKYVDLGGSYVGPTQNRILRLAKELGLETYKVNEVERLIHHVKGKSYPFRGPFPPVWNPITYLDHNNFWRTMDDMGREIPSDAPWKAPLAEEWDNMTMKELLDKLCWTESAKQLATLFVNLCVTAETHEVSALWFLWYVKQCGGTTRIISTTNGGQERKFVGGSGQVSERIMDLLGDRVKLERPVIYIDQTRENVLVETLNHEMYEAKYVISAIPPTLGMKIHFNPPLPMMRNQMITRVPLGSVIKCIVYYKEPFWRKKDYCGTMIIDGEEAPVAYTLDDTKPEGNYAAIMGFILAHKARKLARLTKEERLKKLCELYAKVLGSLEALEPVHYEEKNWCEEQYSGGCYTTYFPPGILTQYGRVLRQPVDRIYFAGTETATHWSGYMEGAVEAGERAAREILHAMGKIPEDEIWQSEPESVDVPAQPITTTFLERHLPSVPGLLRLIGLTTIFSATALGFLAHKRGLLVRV
Description: Inhibition of human MAO B.

In experiment [8] the target is T6, Amine oxidase [flavin-containing] A (Homo sapiens, UniProt P21397).
T6 sequence (P21397 whole entry): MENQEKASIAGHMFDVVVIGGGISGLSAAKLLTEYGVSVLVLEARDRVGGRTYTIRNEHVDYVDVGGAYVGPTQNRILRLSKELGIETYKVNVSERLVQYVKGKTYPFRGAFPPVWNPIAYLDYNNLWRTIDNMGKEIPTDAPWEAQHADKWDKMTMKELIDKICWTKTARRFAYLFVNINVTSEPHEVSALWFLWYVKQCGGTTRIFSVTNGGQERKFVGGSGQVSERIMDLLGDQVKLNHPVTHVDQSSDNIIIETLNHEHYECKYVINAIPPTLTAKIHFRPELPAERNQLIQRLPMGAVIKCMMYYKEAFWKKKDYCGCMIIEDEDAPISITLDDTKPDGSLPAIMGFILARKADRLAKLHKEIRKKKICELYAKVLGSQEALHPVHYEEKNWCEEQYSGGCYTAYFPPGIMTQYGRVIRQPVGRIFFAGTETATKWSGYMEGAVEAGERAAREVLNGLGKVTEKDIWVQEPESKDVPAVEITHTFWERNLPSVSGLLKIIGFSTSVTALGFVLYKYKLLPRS
The experiment can be described thus: Inhibition of human MAO A.

Experiment [9] deals with Amyloid-beta precursor protein (Homo sapiens) (UniProt P05067). Description: Inhibition of self-induced amyloid beta (1 to 42) (unknown origin) aggregation at 100 uM after 24 hrs by ThT fluorescence assay relative to control.
Experiment [10] addresses T3, Acetylcholinesterase. This is another data set of the same source.
Description: Inhibition of electric eel AChE using acetylthiocholine chloride as substrate peincubated for 15 mins followed by substrate addition measured at 1 min interval by Ellman's method
For experiment [11], the target named is T7, Cholinesterase (Equus caballus, UniProt P81908). The experiment can be described thus: Inhibition of equine serum BuChE using butylthiocholine chloride as substrate peincubated for 15 mins followed by substrate addition measured at 1 min interval by Ellman's method.
Experiment [12] concerns the target T4, Acetylcholinesterase. Description: Inhibition of human AChE using acetylthiocholine chloride as substrate peincubated for 15 mins followed by substrate addition measured at 1 min interval by Ellman's method. On the technique in general: In Ellman's method for cholinesterases, released thiocholine reacts with DTNB.
Experiment [13] concerns the target Amyloid-beta precursor protein (Homo sapiens) (UniProt P05067). The experiment can be described thus: Inhibition of self-induced amyloid beta (1 to 42) (unknown origin) aggregation at 100 uM after 24 hrs in presence of copper by ThT fluorescence assay relative to control.
In experiment [14] the target is T7, Cholinesterase. Description: Inhibition of equine serum BuChE by Ellman's method.
Experiment [15] deals with T3, Acetylcholinesterase. The source holds these as a separate data set.
Description: as §1

Molecules are shown by their SMILES.

T4 sequence (P22303 whole entry): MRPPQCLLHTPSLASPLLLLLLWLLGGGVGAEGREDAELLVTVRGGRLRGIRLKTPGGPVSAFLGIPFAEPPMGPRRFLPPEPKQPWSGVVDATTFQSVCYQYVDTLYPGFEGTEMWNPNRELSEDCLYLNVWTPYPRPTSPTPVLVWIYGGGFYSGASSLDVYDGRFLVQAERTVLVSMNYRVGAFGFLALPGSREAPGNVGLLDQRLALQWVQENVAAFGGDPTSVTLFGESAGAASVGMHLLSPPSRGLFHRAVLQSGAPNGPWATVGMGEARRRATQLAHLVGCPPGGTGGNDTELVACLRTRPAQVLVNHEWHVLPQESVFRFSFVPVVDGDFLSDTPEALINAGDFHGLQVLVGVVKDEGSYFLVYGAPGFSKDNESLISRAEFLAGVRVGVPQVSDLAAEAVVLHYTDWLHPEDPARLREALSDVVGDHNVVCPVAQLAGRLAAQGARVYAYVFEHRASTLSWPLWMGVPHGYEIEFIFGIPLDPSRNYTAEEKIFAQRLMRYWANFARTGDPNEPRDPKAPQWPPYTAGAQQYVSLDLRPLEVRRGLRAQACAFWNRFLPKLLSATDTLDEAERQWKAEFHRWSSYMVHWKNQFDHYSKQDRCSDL
Sequence of Acetylcholinesterase (Torpedo californica, UniProt P04058) (P04058 whole entry): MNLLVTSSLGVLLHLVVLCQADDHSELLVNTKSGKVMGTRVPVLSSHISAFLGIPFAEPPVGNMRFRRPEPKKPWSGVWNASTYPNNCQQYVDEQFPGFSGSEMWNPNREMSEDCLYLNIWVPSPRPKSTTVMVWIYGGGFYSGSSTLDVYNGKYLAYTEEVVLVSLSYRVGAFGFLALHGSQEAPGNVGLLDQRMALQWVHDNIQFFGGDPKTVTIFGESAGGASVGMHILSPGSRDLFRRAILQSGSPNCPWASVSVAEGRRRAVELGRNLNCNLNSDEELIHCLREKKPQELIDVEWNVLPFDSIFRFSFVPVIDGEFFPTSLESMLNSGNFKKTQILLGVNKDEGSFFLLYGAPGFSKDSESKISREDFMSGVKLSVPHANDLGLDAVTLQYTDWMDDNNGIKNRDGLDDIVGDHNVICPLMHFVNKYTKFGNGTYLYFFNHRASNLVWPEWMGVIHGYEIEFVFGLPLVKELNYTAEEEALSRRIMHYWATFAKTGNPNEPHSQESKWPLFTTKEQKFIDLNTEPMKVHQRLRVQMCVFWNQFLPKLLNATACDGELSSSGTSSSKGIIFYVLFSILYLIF
T3 sequence (O42275 whole entry): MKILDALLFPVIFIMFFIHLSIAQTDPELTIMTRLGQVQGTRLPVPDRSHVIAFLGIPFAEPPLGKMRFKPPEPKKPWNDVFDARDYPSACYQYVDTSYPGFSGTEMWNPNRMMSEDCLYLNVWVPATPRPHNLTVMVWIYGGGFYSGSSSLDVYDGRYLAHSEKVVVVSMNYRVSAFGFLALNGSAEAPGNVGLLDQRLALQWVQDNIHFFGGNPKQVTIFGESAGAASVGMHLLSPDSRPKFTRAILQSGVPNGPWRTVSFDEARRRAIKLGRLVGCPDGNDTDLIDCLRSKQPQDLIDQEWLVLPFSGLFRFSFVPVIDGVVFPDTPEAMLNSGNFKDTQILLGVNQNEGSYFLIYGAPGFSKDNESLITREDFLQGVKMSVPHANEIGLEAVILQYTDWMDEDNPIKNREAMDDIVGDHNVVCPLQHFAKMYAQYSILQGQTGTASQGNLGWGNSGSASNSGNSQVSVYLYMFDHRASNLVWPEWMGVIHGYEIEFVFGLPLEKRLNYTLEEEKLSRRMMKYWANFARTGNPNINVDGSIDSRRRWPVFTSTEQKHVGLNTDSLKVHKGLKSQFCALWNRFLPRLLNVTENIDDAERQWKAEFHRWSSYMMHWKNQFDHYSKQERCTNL
T7 sequence (P81908 whole entry): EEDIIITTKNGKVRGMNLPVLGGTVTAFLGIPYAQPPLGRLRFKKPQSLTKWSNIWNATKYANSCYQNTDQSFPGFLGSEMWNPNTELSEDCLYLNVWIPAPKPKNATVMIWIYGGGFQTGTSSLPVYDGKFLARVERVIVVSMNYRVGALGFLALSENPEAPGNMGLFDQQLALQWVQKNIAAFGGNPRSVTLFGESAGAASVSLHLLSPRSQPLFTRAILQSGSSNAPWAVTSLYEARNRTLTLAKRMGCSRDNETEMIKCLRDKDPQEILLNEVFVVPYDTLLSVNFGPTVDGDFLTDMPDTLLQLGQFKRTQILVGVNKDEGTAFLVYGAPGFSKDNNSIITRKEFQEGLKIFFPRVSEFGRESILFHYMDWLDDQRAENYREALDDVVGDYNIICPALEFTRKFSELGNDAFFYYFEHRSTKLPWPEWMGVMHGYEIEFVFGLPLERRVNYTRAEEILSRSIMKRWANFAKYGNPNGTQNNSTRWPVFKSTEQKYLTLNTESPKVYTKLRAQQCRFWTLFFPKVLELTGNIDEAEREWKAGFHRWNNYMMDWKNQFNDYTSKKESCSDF
Sequence of Amyloid-beta precursor protein (Homo sapiens) (P05067 whole entry): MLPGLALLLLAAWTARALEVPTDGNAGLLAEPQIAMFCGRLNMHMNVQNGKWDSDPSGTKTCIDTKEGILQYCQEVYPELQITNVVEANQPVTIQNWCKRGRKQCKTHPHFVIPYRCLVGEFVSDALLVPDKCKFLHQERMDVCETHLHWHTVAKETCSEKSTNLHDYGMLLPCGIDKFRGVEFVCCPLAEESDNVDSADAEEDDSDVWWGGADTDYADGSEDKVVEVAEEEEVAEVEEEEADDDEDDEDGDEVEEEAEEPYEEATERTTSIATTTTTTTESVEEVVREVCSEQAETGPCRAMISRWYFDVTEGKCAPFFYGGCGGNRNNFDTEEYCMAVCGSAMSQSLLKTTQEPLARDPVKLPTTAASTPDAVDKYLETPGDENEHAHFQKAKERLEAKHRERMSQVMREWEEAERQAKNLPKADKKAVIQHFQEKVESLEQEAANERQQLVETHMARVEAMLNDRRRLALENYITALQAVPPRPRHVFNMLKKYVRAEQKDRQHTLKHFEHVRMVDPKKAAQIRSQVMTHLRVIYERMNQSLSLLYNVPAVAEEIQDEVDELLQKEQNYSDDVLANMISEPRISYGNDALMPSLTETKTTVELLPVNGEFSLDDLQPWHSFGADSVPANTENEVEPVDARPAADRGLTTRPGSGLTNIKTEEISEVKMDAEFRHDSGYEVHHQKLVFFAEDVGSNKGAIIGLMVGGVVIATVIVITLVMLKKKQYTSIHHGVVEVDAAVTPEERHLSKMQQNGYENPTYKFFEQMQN
Sequence of Cholinesterase (Homo sapiens) (P06276 whole entry): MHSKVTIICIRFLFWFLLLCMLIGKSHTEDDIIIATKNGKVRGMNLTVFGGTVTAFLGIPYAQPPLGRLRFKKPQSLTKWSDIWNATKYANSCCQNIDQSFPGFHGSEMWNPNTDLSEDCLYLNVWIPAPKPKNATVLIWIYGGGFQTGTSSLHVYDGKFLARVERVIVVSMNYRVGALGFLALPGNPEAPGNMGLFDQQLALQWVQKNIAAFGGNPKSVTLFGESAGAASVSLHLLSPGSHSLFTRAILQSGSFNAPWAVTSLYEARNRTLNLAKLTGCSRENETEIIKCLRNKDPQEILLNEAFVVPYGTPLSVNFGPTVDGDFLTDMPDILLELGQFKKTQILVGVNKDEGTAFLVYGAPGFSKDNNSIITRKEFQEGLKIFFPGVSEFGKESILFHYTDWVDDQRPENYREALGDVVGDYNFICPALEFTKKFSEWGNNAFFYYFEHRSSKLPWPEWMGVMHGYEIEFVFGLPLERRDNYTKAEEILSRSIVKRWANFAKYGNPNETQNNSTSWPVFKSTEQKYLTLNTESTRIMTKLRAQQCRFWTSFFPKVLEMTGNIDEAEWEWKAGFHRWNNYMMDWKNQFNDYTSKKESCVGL

The compound `C=CCSC[C@@H](N)C(=O)NCCCNc1c2c(nc3cc(Cl)ccc13)CCCC2` came in with an IC50 against Acetylcholinesterase [1] of 300 nM. Consider `C#CCN[C@@H]1CCc2ccc(OC(=O)N(C)CC)cc21` [LADOSTIGIL], for which the inhibition at 26 mg/kg in [2] and in [3] was 70% in each case. For the compound `C#CCN(C)Cc1cc2cc(OC)c(O)cc2oc1=O`, on Acetylcholinesterase [4], the half-maximal inhibitory concentration (IC50) was 2780 to 14400 nM. Consider `CCN(C)C(=O)Oc1cccc([C@H](C)N(C)C)c1`, for which the inhibition against Acetylcholinesterase [5] was 40%; in experiment [6] it was 25%. `C#CCN(C)Cc1cc2cc(OCCCC3CCN(Cc4ccccc4)CC3)ccc2n1C`: the IC50 came to 177 nM in experiment [7] and 5.44 nM in experiment [8].

`C#CCSCC(NC(=O)CCCCCNc1c2c(nc3ccccc13)CCCC2)C(=O)Nc1nc2ccccc2s1` (stereo unspecified): the IC50 against Acetylcholinesterase [1] is 250 to 280 nM. As for `C=CCSCC(NC(=O)CCCCCNc1c2c(nc3cc(Cl)ccc13)CCCC2)C(=O)Nc1nc2ccccc2s1` (stereo unspecified), the 50% inhibitory concentration (IC50) against Acetylcholinesterase [1] came to 280 nM.

In experiment [9], `C=CCSCC(NC(=O)CCCCCNc1c2c(nc3ccccc13)CCCC2)C(=O)Nc1nc2ccccc2s1` (stereo unspecified) came in with an inhibition of 78.2%. Also, the IC50 at Acetylcholinesterase [1] is 250 to 280 nM. `C#CCNCCNc1c2c(nc3ccccc13)CCCC2`: on Acetylcholinesterase [10], the IC50 is 226 nM.

With `C#CCN(CC#C)c1c2c(nc3cc(Cl)ccc13)CCCC2`, the IC50 on Cholinesterase [11] was found to be 5380 nM; at Acetylcholinesterase [10] it was 884 nM. For the compound `C#CCNc1c2c(nc3cc(Cl)ccc13)CCCC2`, the figures for the IC50 against Acetylcholinesterase [12], against Cholinesterase [11] and against Acetylcholinesterase [10] were 9.4 nM, 83.5 nM and 11.2 nM, respectively. For the compound `C#CCN(C)Cc1cc2ccc(OC)cc2oc1=O`, the IC50 against Acetylcholinesterase [4] lay in the range of 2780 to 14400 nM.

For `C=CCSCC(NC(=O)CCCNc1c2c(nc3cc(Cl)ccc13)CCCC2)C(=O)Nc1nc2ccccc2s1` (stereo unspecified), the inhibition in experiment [13] was determined as 56.6%; in experiment [9], 31.6%. The compound further came in with a 50% inhibitory concentration (IC50) against Acetylcholinesterase [1] of 250 to 280 nM. For `C#CCN(C)Cc1cc2ccccc2oc1=O`, at Acetylcholinesterase [4], the 50% inhibitory concentration (IC50) lay in the range of 2780 to 14400 nM. `C#CCSCC(NC(=O)CCCNc1c2c(nc3ccccc13)CCCC2)C(=O)Nc1nc2ccccc2s1` (stereo unspecified) displayed an inhibition in experiment [9] of 77.2%. On Acetylcholinesterase [1], this compound registered an IC50 of 250 to 280 nM. In the case of `C#CCSC[C@@H](N)C(=O)NCCCCNc1c2c(nc3ccccc13)CCCC2`, it took 1210 nM to reach half-maximal inhibition against Acetylcholinesterase [1] (IC50). In the case of `C#CCN(CC#C)CCNc1c2c(nc3ccccc13)CCCC2`, the IC50 was determined as 353 nM at Cholinesterase [11] and 339 nM against Acetylcholinesterase [10]. For the compound `C#CCSCC(NC(=O)CCCNc1c2c(nc3cc(Cl)ccc13)CCCC2)C(=O)Nc1nc2ccccc2s1` (stereo unspecified), the inhibition in experiment [13] was 37.6%; in [9], 24.1%. This compound also had an IC50 on Acetylcholinesterase [1] of 250 nM. `C#CCSC[C@@H](N)C(=O)NCCCNc1c2c(nc3cc(Cl)ccc13)CCCC2`: the 50% inhibitory concentration (IC50) against Acetylcholinesterase [1] came out at 560 nM. Compound `Nc1c2c(nc3cc(Cl)ccc13)CCCC2` registered an IC50 on Acetylcholinesterase [10] of 23.5 nM. `C=CCSC[C@@H](N)C(=O)NCCCNc1c2c(nc3ccccc13)CCCC2`: it took 880 nM to reach half-maximal inhibition at Acetylcholinesterase [1] (IC50). For `C#CCSCC(NC(=O)CCCCCNc1c2c(nc3cc(Cl)ccc13)CCCC2)C(=O)Nc1nc2ccccc2s1` (stereo unspecified), the IC50 on Acetylcholinesterase [1] lay within 250 to 280 nM.

In the case of `C#CCN(C)c1nc(NCCCCC2CCN(Cc3ccccc3)CC2)c(C#N)cc1C#N`, the IC50 on Cholinesterase [14] was 600 nM; on Acetylcholinesterase [15], 1.1 nM. On to `C#CCNc1c2c(nc3ccccc13)CCCC2`, for which the IC50 against Acetylcholinesterase [12] was 50.7 nM; against Cholinesterase [11] it was 77.6 nM; at Acetylcholinesterase [10] it was 51.3 to 106 nM.

On Acetylcholinesterase [1], `C=CCSCC(NC(=O)CCCNc1c2c(nc3ccccc13)CCCC2)C(=O)Nc1nc2ccccc2s1` (stereo unspecified) had a concentration for half-maximal inhibition (IC50) of 250 to 280 nM.

For orientation: IC50 means the midpoint of a concentration-inhibition curve. A high value points to a need for much substance. A word on the inhibition: it is the share of the control response that was lost under treatment.
